Results as given in article PMC11208559 (Scientific Reports, 2024).

Columns and labels:
in vitro [1] = type: in vitro ADME, CD-1 mice; settings: male, CD-1, mouse, microsomes
Protocol: (§1) Metabolic stability of lead compounds was assessed in vitro by the method of Di et al.[32]. Briefly, mouse liver microsomes (Corning Life Sciences, Woburn, MA) were isolated from CD-1 mice (male mice, 8 − 10 weeks of age). Assays were conducted using 0.123 mg/mL protein concentration (total protein concentration in the microsomal solution) and 1.0 μM drug concentration under incubation conditions of 37 °C. Metabolic stability was determined following 0, 5, 15, 30, and 60 min of incubation time. The samples were analyzed by reversed phase LC using a triple quadrupole mass spectrometer. Compound specific transitions of parent ion to product ion were monitored and percent remaining calculated based on peak area of 5 − 60 min time points (relative to time zero). Half-life calculations were determined using the formula t½ = − ln(2)/k, where k (min^−1) is the turnover rate constant (the slope) estimated from a log − linear regression of the percentage compound remaining versus time.
LC − MS/MS analysis was conducted using an Agilent (Santa Clara, CA) 6460 triple quadrupole mass spectrometer coupled with an Agilent liquid chromatography (LC) system. The LC system consists of a binary pump, degasser, column heater, and autosampler. […]

human mu opioid receptor = molecular target: T1, human mu opioid receptor (Homo sapiens, UniProt P35372); type: binding; settings: up to a 10 μM concentration
T1 construct: membrane protein

CD-1 mice [2] = assay: Morphine anti-nociceptive tolerance and tolerance rescue (tail flick); type: in vivo
Protocol: (§2) Pre-injection tail-flick baselines were determined in a 52 °C tail-flick assay with a 10-s cutoff time (method also reported in Ref.[13]). […] No animals were excluded from these studies.

CD-1 mice [3] = settings: mouse, in vivo
physchem = type: physicochemical
Protocol: Distribution coefficient (LogD) was determined by the method of Wilson et al.[30]. Briefly, 5 µL volumes of test compounds diluted in DMSO were added to a mixture of equal volumes of 50 mM phosphate buffer and 1-octanol. The compounds were assayed using a 50 nM concentration in order to limit compound precipitation and to ensure that the assay values were maintained within the dynamic range of the LC–MS/MS instrumentation. Samples were vortex mixed at 800 rpm for 24 h. Subsequent to centrifugation at 14,000 rpm for 30 min, 1 µL of each layer was analyzed by LC–MS/MS. LogD was calculated using the peak areas obtained from each layer.
LC − MS/MS analysis was conducted using an Agilent (Santa Clara, CA) 6460 triple quadrupole mass spectrometer coupled with an Agilent liquid chromatography (LC) system. The LC system consists of a binary pump, degasser, column heater, and autosampler. Chromatographic separation was performed on a Waters Atlantis T3 3 µm 3.0 × 50 mm analytical column using a ballistic gradient of mobile phase consisting of 0.1% formic acid in water (A) and 0.1% formic acid in acetonitrile (B) at a flow rate of 0.75 mL/min. The mobile phase was heated to a temperature of 45 °C.

CD-1 mice [4] = assay: 52 °C tail-flick assay, morphine anti-nociception after Hsp90 inhibitor treatment; type: in vivo
Protocol: as §2

in vitro [5] = type: in vitro ADME; settings: male, human, microsomes
Protocol: as §1
Metabolic stability of the compounds in human liver microsomes was determined by the method described above using pooled human liver microsome preparations from 20 male donors (Corning Life Sciences, Woburn, MA). Assays were conducted as described above and the in vitro half-life of the compounds was calculated. […]

[6] = molecular target: T2, human delta opioid receptor (Homo sapiens, UniProt P41143); assay: Competition radioligand binding vs 3H-diprenorphine, delta opioid receptor; settings: up to a 10 μM concentration
T2 construct: membrane protein

[7] = molecular target: T3, human kappa opioid receptor (Homo sapiens, UniProt P41145); assay: Competition radioligand binding vs 3H-diprenorphine, kappa opioid receptor; settings: up to a 10 μM concentration
T3 construct: membrane protein

CD-1 mice [8] = assay: Post-surgical paw incision, mechanical allodynia (von Frey), morphine anti-nociception; type: in vivo
Protocol: Mechanical thresholds were determined prior to surgery using calibrated von Frey filaments (Ugo Basile, Varese, Italy) with the up-down method and four measurements after the first response per mouse as in Ref.[27] and our previously published work (e.g. Ref.[28]). The mice were housed in a homemade apparatus with Plexiglas walls and ceiling and a wire mesh floor (3-inch wide 4-inch long 3-inch high with 0.25-inch wire mesh). The surgery was then performed by anesthesia with ~ 2% isoflurane in standard air, preparation of the left plantar hind paw with iodine and 70% ethanol, and a 5-mm incision made through the skin and fascia with a no. 11 scalpel. The muscle was elevated with curved forceps leaving the origin and insertion intact, and the muscle was split lengthwise using the scalpel. The wound was then closed with 5–0 polyglycolic acid sutures. Mice were then injected with inhibitor or Vehicle control and left to recover for 24 h. Our intrathecal (i.t.) injection protocol is reported in Refs.[13],[29]; briefly, the injection was made in awake and restrained animals with a 10 μL Hamilton syringe and 30 g needle (5–7 μL volume) between the L5-L6 vertebrae at a 45° angle, with placement validated by tail twitch. Since the injection was made through skin with no incision or other surgical intervention, repeated injection protocols were performed the same way. The next day, the mechanical threshold was again determined as described above. […] . No animals were excluded from these studies.

CD-1 mice [9] = assay: HIV peripheral neuropathy (gp120), mechanical threshold, morphine anti-nociception; type: in vivo
Protocol: Mechanical threshold baselines were measured prior to any treatment on the left hind paw using von Frey filaments. HIV peripheral neuropathy was induced by intrathecal injection of gp120 IIIb protein (SPEED BioSystems, Gaithersburg, MD, Cat# YCP1549, 15 ng/μl in 0.1 M PBS and 0.1% BSA, 7-μl volume) using our previously established protocol[13] on days 1, 3, and 5. On day 20 a second mechanical threshold baseline was measured on the left hind paw using von Frey filaments and then KU-32 or Vehicle was injected i.t with a 24-h treatment time. […] . No animals were excluded from these studies.

[10] = daily 0.01 nmol KU-32 i.t., twice daily 1–10 mg/kg morphine s.c., tail flick, 95% CI in parentheses
[11] = 0.01 nmol KU-32 i.t. vs Vehicle

For `CCCc1cc2cc(-n3nc(C)c4c3CC(C)(C)CC4=O)cc(N3CCC(O)CC3)c2c(=O)[nH]1` [KUNB106], the half-life at 1 µM (in vitro [1]) was 1.05 h, the “binding to mu opioid receptor (competition vs 3H-diprenorphine)” value (human mu opioid receptor) was “did not find any binding” and the “rescue of established morphine tolerance, systemic inhibitor” value (CD-1 mice [2]; 3 days twice daily 10 mg/kg morphine s.c., 1 mg/kg i.v. on day 3, 24 h, 10 mg/kg morphine s.c., tail flick) was “rescued established tolerance”. For the same molecule, the “effect on respiratory activity before and after morphine” value (CD-1 mice [3]) was “no impact on respiratory activity before or after morphine”, the logD at 24 h (physchem) was 2.26 and the “naloxone reversibility of inhibitor-enhanced morphine pain relief” value (CD-1 mice [4]; 1 mg/kg i.v., 24 h, 2 mg/kg naloxone i.p. 10 min, 3.2 mg/kg morphine s.c., tail flick) was “fully naloxone-reversible”. The “A50 (morphine anti-nociceptive potency), tail flick, systemic inhibitor” value (CD-1 mice [4]; 1 mg/kg inhibitor i.v., 24 h, then 1–5.6 mg/kg morphine s.c., peak %MPE, 95% CI in parentheses) was 1.7 (1.1–2.3) mg/kg, the “effect of higher 10 mg/kg dose on morphine pain relief (tail flick)” value (CD-1 mice [4]; 10 mg/kg i.v. vs 1 mg/kg i.v., 24 h, then 3.2 mg/kg morphine s.c.) was “less benefit than 1 mg/kg” and the half-life at 1 µM (in vitro [5]) was 2.6 h. The “binding to delta opioid receptor (competition vs 3H-diprenorphine)” value [6] was “did not find any binding” and the “binding to kappa opioid receptor (competition vs 3H-diprenorphine)” value [7] was “did not find any binding”.

For `CO[C@@H]1[C@@H](O)[C@@H](O)[C@H](Oc2ccc3cc(NC(C)=O)c(=O)oc3c2C)OC1(C)C` [KU-32], the “baseline nociception (tail flick baseline responses)” value (CD-1 mice [2]; 0.01 nmol i.t. daily, 7-day regimen) was “not altering baseline nociception”, the “rescue of established morphine tolerance” value (CD-1 mice [2]; 3 days twice daily 10 mg/kg morphine s.c., 0.01 nmol i.t. on day 3, 24 h, 10 mg/kg morphine on day 4) was “full anti-nociceptive response to morphine, comparable to their day 1 response” and the “A50 of morphine, Day 1 of tolerance regimen” value (CD-1 mice [2]; [10]) was 1.9 (1.3–2.5) mg/kg. For the same molecule, the “A50 of morphine, Day 4 of tolerance regimen” value (CD-1 mice [2]; [10]) was 5.5 (3.5–12) mg/kg, the “fold increase in morphine potency, tail flick” value (CD-1 mice [4]; [11]) was 1.9 fold and the “A50 (morphine anti-nociceptive potency), tail flick” value (CD-1 mice [4]; 0.01 nmol KU-32 i.t., 24 h, then 1–10 mg/kg morphine s.c., %MPE, 95% CI in parentheses) was 1.6 (1.3–2.0) mg/kg. The “fold increase in morphine potency, paw incision” value (CD-1 mice [8]; [11]) was 2.8 fold, the “A50 (morphine anti-nociceptive potency), paw incision” value (CD-1 mice [8]; 0.01 nmol KU-32 i.t., 24 h, then 0.32–5.6 mg/kg morphine s.c., %MPE, 95% CI in parentheses) was 0.85 (0.64–1.1) mg/kg and the “A50 (morphine anti-nociceptive potency), HIV neuropathy” value (CD-1 mice [9]; 0.01 nmol KU-32 i.t. on day 20, 24 h, then 0.32–10 mg/kg morphine s.c., %MPE, 95% CI in parentheses) was 1.2 (0.87–1.5) mg/kg. For the same molecule, the “fold increase in morphine potency, HIV neuropathy” value (CD-1 mice [9]; [11]) was 3.5 fold.
